The values below come from patent US9617283B2, “Bicyclic heterocycle compounds and their uses in therapy” (ASTEX THERAPEUTICS LIMITED, priority 2012, dated 2017).

Where a name gives a salt, the structure may show the parent alone. Read-outs that look alike come from different tables or passages of the source.

Assay [1] has as its system EVSA-T (human breast carcinoma). Nature of the assay: Anti-proliferative activity, Alamar Blue assay, EVSA-T. Type of assay: cell-based.
Assay [2] has as its target T1, BIR3 domain of human XIAP (residues 252-350) (Homo sapiens, UniProt P98170).
T1 construct: BIR3 domain of human XIAP (residues 252-350); His-tag (cleaved yes); made in house; host or cells: Escherichia coli
Put plainly: XIAP in vitro competitive displacement binding assay (fluorescence polarization). The following applies: 1 h, percent inhibition (PI) at 0.04 μM; read-out: Xiap IC50 or PI μM.

[3] abbreviates: Homo sapiens, EVSA-T, 72 h, EVSA-T cell line, 72 hours, Alamar Blue; read-out: EVSA-T prolif.
The mark [4] stands for this setting: Homo sapiens, EVSA-T; read-out: EC50 in EVSA-T cell line assays.
[5] abbreviates: Homo sapiens, EVSA-T, read-out: EC50 in EVSA-T cell line assays.

T1 sequence (P98170 252-350): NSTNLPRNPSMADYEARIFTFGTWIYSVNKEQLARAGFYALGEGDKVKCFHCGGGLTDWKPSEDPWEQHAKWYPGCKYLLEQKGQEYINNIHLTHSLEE

For the molecule `C[C@@H]1CN(CC(=O)N2CC(C)(C)c3ncc(Cc4ccc(F)cc4)cc32)[C@@H](CN2CC(C)(C)OC2=O)CN1` [Example 5, 3-{[(2R,5R)-1-(2-{6-[(4-Fluorophenyl)methyl]-3,3-dimethyl-1H,2H,3H-pyrrolo[3,2-b]pyridin-1-yl}-2-oxoethyl)-5-methylpiperazin-2-yl]methyl}-5,5-dimethyl-1,3-oxazolidin-2-one dihydrochloride], the values for the EC50 in assay [1] (setting [3]) and in assay [1] (setting [4]) were 6.2 nM and less than 1000 nM, respectively. Besides, in assay [2], the inhibition at 0.04 µM worked out at 44%.

For `CCCC(F)(F)c1cc2c(cn1)C(C)(C)CN2C(=O)CN1C[C@@H](C)NC[C@@H]1CN1Cc2ccccc2C1=O` [Example 27, 2-{[(2R,5R)-1-{2-[6-(1,1-Difluorobutyl)-3,3-dimethyl-1H,2H,3H-pyrrolo[3,2-c]pyridin-1-yl]-2-oxoethyl}-5-methylpiperazin-2-yl]methyl}-2,3-dihydro-1H-isoindol-1-one, dihydrochloride], the EC50 in assay [1] (setting [3]) was 5.2 nM; in assay [1] (setting [4]) it was less than 1000 nM. The inhibition at 0.04 µM in assay [2] stood at 75%.

Regarding `C[C@@H]1CN(CC(=O)N2CC(C)(C)c3ncc(Cc4ccc(F)cc4)cc32)[C@@H](CN2CCCCC2=O)CN1` [Example 21, 1-{[(2R,5R)-1-(2-{6-[(4-Fluorophenyl)methyl]-3,3-dimethyl-1H,2H,3H-pyrrolo[3,2-b]pyridin-1-yl}-2-oxoethyl)-5-methylpiperazin-2-yl]methyl}piperidin-2-one, dihydrochloride], the EC50 in assay [1] (setting [3]) is 2.1 nM; in assay [1] (setting [5]) it was less than 1000 nM. Further, the inhibition at 0.04 µM in assay [2] amounted to 44%.

Turning to `C[C@@H]1CN(CC(=O)N2CC(C)(C)c3cnc(Cc4ccc(F)cc4F)cc32)[C@@H](CN2C[C@H](C)N(C)CC2=O)CN1` [Example 81, (5S)-1-{[(2R,5R)-1-(2-{6-[(2,4-Difluorophenyl)methyl]-3,3-dimethyl-1H,2H,3H-pyrrolo[3,2-c]pyridin-1-yl}-2-oxoethyl)-5-methylpiperazin-2-yl]methyl}-4,5-dimethylpiperazin-2-one dihydrochloride], the EC50 in assay [1] (setting [3]) was 2.8 nM; in assay [1] (setting [4]), less than 1000 nM. In addition, in assay [2], the inhibition at 0.04 µM is 52%.

As for `C[C@@H]1CN(CC(=O)N2CC(C)(C)c3ncc(Cc4ccc(F)cc4F)cc32)[C@@H](CN2Cc3c(O)cccc3C2=O)CN1` [Example 118, 2-{[(2R,5R)-1-(2-{6-[(2,4-Difluorophenyl)methyl]-3,3-dimethyl-1H,2H,3H-pyrrolo[3,2-b]pyridin-1-yl}-2-oxoethyl)-5-methylpiperazin-2-yl]methyl}-4-hydroxy-2,3-dihydro-1H-isoindol-1-one dihydrochloride], the results for the EC50 in assay [1] (setting [3]) and in assay [1] (setting [4]) were 6.4 nM and less than 1000 nM, respectively. In assay [2], the inhibition at 0.04 µM was 72%.

As to `C[C@@H]1CN(CC(=O)N2CC(C)(C)c3cnc(Cc4ccc(F)cc4F)cc32)[C@@H](CN2C[C@@H](C)OCC2=O)CN1` [Example 69, (6R)-4-{[(2R,5R)-1-(2-{6-[(2,4-Difluorophenyl)methyl]-3,3-dimethyl-1H,2H,3H-pyrrolo[3,2-c]pyridin-1-yl}-2-oxoethyl)-5-methylpiperazin-2-yl]methyl}-6-methylmorpholin-3-one dihydrochloride], the EC50 in assay [1] (setting [3]) was 2.6 nM; in assay [1] (setting [4]), less than 1000 nM. The inhibition at 0.04 µM in assay [2] came to 68%.

Consider `C[C@@H]1CN(CC(=O)N2CC(C)(C)c3ncc(Cc4ccc(F)cc4)cc32)[C@@H](CN2CC3(COC3)CC2=O)CN1` [Example 12, 6-{[(2R,5R)-1-(2-{6-[(4-Fluorophenyl)methyl]-3,3-dimethyl-1H,2H,3H-pyrrolo[3,2-b]pyridin-1-yl}-2-oxoethyl)-5-methylpiperazin-2-yl]methyl}-2-oxa-6-azaspiro[3.4]octan-7-one L-lactate], for which the EC50 in assay [1] (setting [3]) is 7.1 nM; in assay [1] (setting [4]), less than 1000 nM. Further, the inhibition at 0.04 µM in assay [2] came out at 42%.

Consider `C[C@H]1CC(=O)N(C[C@H]2CN[C@H](C)CN2CC(=O)N2CC(C)(C)c3cnc(Cc4ccc(F)cc4F)cc32)C1` [Example 74, (4S)-1-{[(2R,5R)-1-(2-{6-[(2,4-Difluorophenyl)methyl]-3,3-dimethyl-1H,2H,3H-pyrrolo[3,2-c]pyridin-1-yl}-2-oxoethyl)-5-methylpiperazin-2-yl]methyl}-4-methylpyrrolidin-2-one dihydrochloride], for which the EC50 in assay [1] (setting [3]) is 1.8 nM; in assay [1] (setting [4]) it was less than 1000 nM. Besides, the inhibition at 0.04 µM in assay [2] was found to be 71%.

In the case of `COc1ccc2c(c1)CN(C[C@H]1CN[C@H](C)CN1CC(=O)N1CC(C)(C)c3cnc(Cc4ccc(F)cc4)cc31)C2=O` [Example 92, 2-{[(2R,5R)-1-(2-{6-[(4-Fluorophenyl)methyl]-3,3-dimethyl-1H,2H,3H-pyrrolo[3,2-c]pyridin-1-yl}-2-oxoethyl)-5-methylpiperazin-2-yl]methyl}-5-methoxy-2,3-dihydro-1H-isoindol-1-one dihydrochloride], the EC50 was 0.26 nM in assay [1] (setting [3]) and less than 1000 nM in assay [1] (setting [4]). Also, the inhibition at 0.04 µM in assay [2] was found to be 93%.

Take `C[C@@H]1CN(CC(=O)N2CC(C)(C)c3ncc(Cc4ccc(F)cc4F)cc32)[C@@H](CN2C[C@H](C)OCC2=O)CN1` (single isomer, unassigned) [Example 23, (6R or 6S)-4-{[(2R,5R)-1-(2-{6-[(2,4-Difluorophenyl)methyl]-3,3-dimethyl-1H,2H,3H-pyrrolo[3,2-b]pyridin-1-yl}-2-oxoethyl)-5-methylpiperazin-2-yl]methyl}-6-methylmorpholin-3-one, dihydrochloride]: the EC50 in assay [1] (setting [3]) is 2.8 nM; in assay [1] (setting [4]) it was less than 1000 nM. Also, in assay [2], the inhibition at 0.04 µM is 64%.

For the molecule `C[C@@H]1CN(CC(=O)N2CC(C)(C)c3cnc(Cc4ccc(F)cc4F)cc32)[C@@H](CN2C[C@@H](C)N(C)CC2=O)CN1` [Example 85, (5R)-1-{[(2R,5R)-1-(2-{6-[(2,4-Difluorophenyl)methyl]-3,3-dimethyl-1H,2H,3H-pyrrolo[3,2-c]pyridin-1-yl}-2-oxoethyl)-5-methylpiperazin-2-yl]methyl}-4,5-dimethylpiperazin-2-one dihydrochloride], the EC50 in assay [1] (setting [3]) was 4.5 nM; in assay [1] (setting [4]), less than 1000 nM. In addition, the inhibition at 0.04 µM in assay [2] is 45%.

With `C[C@@H]1CN(CC(=O)N2CC(C)(C)c3cnc(Cc4ccc(F)cc4)cc32)[C@@H](CN2Cc3ncccc3C2=O)CN1` [Example 20, 6-{[(2R,5R)-1-(2-{6-[(4-Fluorophenyl)methyl]-3,3-dimethyl-1H,2H,3H-pyrrolo[3,2-c]pyridin-1-yl}-2-oxoethyl)-5-methylpiperazin-2-yl]methyl}-5H,6H,7H-pyrrolo[3,4-b]pyridin-5-one, dihydrochloride], the “EVSA-T prolif μM” value in assay [1] (EVSA-T cell line, % at 0.001 μM) was found to be 92% at. Further, the EC50 in assay [1] (setting [5]) is less than 1000 nM. Further, the inhibition at 0.04 µM in assay [2] stood at 76%.

With `C[C@@H]1CN(CC(=O)N2CC(C)(C)c3ncc(Cc4ccc(F)cc4F)cc32)[C@@H](CN2CC(C)(C)CC2=O)CN1` [Example 30, 1-{[(2R,5R)-1-(2-{6-[(2,4-Difluorophenyl)methyl]-3,3-dimethyl-1H,2H,3H-pyrrolo[3,2-b]pyridin-1-yl}-2-oxoethyl)-5-methylpiperazin-2-yl]methyl}-4,4-dimethylpyrrolidin-2-one dihydrochloride], the EC50 in assay [1] (setting [3]) is 1.1 nM; in assay [1] (setting [5]), less than 1000 nM. Moreover, the inhibition at 0.04 µM in assay [2] came to 70%.

As for `CCCC(F)(F)c1cc2c(cn1)C(C)(C)CN2C(=O)CN1C[C@@H](C)NC[C@@H]1CN1C[C@H](C)OCC1=O` [Example 26, (6S)-4-{[(2R,5R)-1-{2-[6-(1,1-Difluorobutyl)-3,3-dimethyl-1H,2H,3H-pyrrolo[3,2-c]pyridin-1-yl]-2-oxoethyl}-5-methylpiperazin-2-yl]methyl}-6-methylmorpholin-3-one, dihydrochloride], the EC50 in assay [1] (setting [3]) was 27 nM; in assay [1] (setting [4]), less than 1000 nM. Moreover, in assay [2], the inhibition at 0.04 µM turned out to be 60%.

In the case of `CCCC(F)(F)c1cc2c(nn1)C(C)(C)CN2C(=O)CN1C[C@@H](C)NC[C@@H]1CN1Cc2ccccc2C1=O` [Example 59, 2-{[(2R,5R)-1-{2-[3-(1,1-Difluorobutyl)-7,7-dimethyl-5H,6H,7H-pyrrolo[3,2-c]pyridazin-5-yl]-2-oxoethyl}-5-methylpiperazin-2-yl]methyl}-2,3-dihydro-1H-isoindol-1-one dihydrochloride], the EC50 is 1.6 nM in assay [1] (setting [3]) and less than 1000 nM in assay [1] (setting [4]). Moreover, the inhibition at 0.04 µM in assay [2] was 68%.

For the molecule `CCCC(F)(F)c1cc2c(cn1)C(C)(C)CN2C(=O)CN1C[C@@H](C)NC[C@@H]1CN1C[C@@H](C)CC1=O` [Example 75, (4S)-1-{[(2R,5R)-1-{2-[6-(1,1-Difluorobutyl)-3,3-dimethyl-1H,2H,3H-pyrrolo[3,2-c]pyridin-1-yl]-2-oxoethyl}-5-methylpiperazin-2-yl]methyl}-4-methylpyrrolidin-2-one dihydrochloride], the EC50 is 14 nM in assay [1] (setting [3]) and less than 1000 nM in assay [1] (setting [4]). In addition, the inhibition at 0.04 µM in assay [2] amounted to 75%.

For the molecule `CCCC(F)(F)c1cc2c(cn1)C(C)(C)CN2C(=O)CN1C[C@@H](C)NC[C@@H]1CN1CC(C)(C)CC1=O` [Example 38, 1-{[(2R,5R-1-{2-[6-(1,1-Difluorobutyl)-3,3-dimethyl-1H,2H,3H-pyrrolo[3,2-c]pyridin-1-yl]-2-oxoethyl}-5-methylpiperazin-2-yl]methyl}-4,4-dimethylpyrrolidin-2-one dihydrochloride], the values for the EC50 in assay [1] (setting [3]) and in assay [1] (setting [4]) were 13 nM and less than 1000 nM, respectively. The inhibition at 0.04 µM in assay [2] came to 76%.

Regarding `CC1=C(C)C(=O)N(C[C@H]2CN[C@H](C)CN2CC(=O)N2CC(C)(C)c3ncc(Cc4ccc(F)cc4F)cc32)C1` [Example 24, 1-{[(2R,5R)-1-(2-{6-[(2,4-Difluorophenyl)methyl]-3,3-dimethyl-1H,2H,3H-pyrrolo[3,2-b]pyridin-1-yl}-2-oxoethyl)-5-methylpiperazin-2-yl]methyl}-3,4-dimethyl-2,5-dihydro-1H-pyrrol-2-one, dihydrochloride], the EC50 is 1.7 nM in assay [1] (setting [3]) and less than 1000 nM in assay [1] (setting [4]). For the same molecule, the inhibition at 0.04 µM in assay [2] is 72%.
